Data published in patent publication US10609945B2, “Compositions comprising 2FL and LNnT to control food intake and growth in infants or young children” (NESTEC S.A., priority 2016, dated 2020).

Assay: Relative intake (total food intake/average body weight) of IUGR rats
Assay type: in vivo
Conditions: diet with 4.5 wt % HMO(s), vs IUGR rats control; for relative intake, period day 22-day 29: FIG. 4A/5A; for relative intake, period day 22-day 36: FIG. 4B/5B
Description: A wide group of pregnant female rats were bought from Charles River laboratories. Some of them were submitted to food restriction of 60% during the last 10 days of gestation. Immediately after birth (d=1), the born rat pups—subjects of the experiment—were split intoseveral groups: • Normal rats (reference): no IUGR (Intrauterine growth restriction) during their mothers' pregnancy (n=20). • IUGR rats (control): […] LNnT or 2FL+LNnT (in a weight ratio 2:1), see details below. All rat pups were fed from birth (d=1) up to 57 days (d=57) based on the following protocol: • day 1-day 6: all groups of rats were nursed by dam (mothers' milk only) • day 7-day 21: all rats were nursed by dam (mothers' milk only). […] To assess the efficiency of the feeding of these rats, especially tosee whether the feeding imply a healthy growth or not, several parameters were calculated, including: • the lean mass: it corresponds to the amount of weight in the body composition that is not fat. It was measured by magnetic resonance imaging. • the relative intake: it corresponds to the total food intake divided by the average body weight of a specified period. It was assessed for several periods during the entire experiment (so the total of food ingested was measured in continuous during several days to make the calculation). Significance was assessed using the […].

Compound	relative intake, period day 22-day 29	relative intake, period day 22-day 36
2′-fucosyllactose [2FL]	significantly increased	significantly increased
CC(=O)N[C@H]1[C@H](O[C@H]2[C@@H](O)[C@@H](CO)O[C@@H](O[C@H]3[C@H](O)[C@@H](O)C(O)O[C@@H]3CO)[C@@H]2O)O[C@H](CO)[C@@H](O[C@@H]2O[C@H](CO)[C@H](O)[C@H](O)[C@H]2O)[C@@H]1O (mixture of isomers) [LNnT, lacto-N-neotetraose]	significantly increased	significantly increased
